Assay results reported in ChEMBL document CHEMBL3046521, “Synthesis and antitumor activity of (4-hydroxyphenyl)[5-substituted alkyl/aryl)-2-thioxo-1,3,4-thiadiazol-3-yl]methanone and [(3,4-disubstituted)-1,3-thiazol-2ylidene]-4-hydroxybenzohydrazide” (2011).

Key:
Type in all cases: functional
KM12 = experiment: Cytotoxicity against Homo sapiens (human) KM12 cells after 48 hr by sulforhodamine B assay; details: KM12, 48 h
COLO 205 = experiment: Cytotoxicity against Homo sapiens (human) COLO205 cells after 48 hr by sulforhodamine B assay; details: COLO 205, 48 h
NCI-H460 = experiment: Cytotoxicity against Homo sapiens (human) NCI-H460 cells after 48 hr by sulforhodamine B assay; details: NCI-H460, 48 h
NCI-H322M = experiment: Cytotoxicity against Homo sapiens (human) NCI-H322M cells after 48 hr by sulforhodamine B assay
NCI-H226 = experiment: Cytotoxicity against Homo sapiens (human) NCI-H226 cells after 48 hr by sulforhodamine B assay; details: NCI-H226, 48 h
EKVX = experiment: Cytotoxicity against Homo sapiens (human) EKVX cells after 48 hr by sulforhodamine B assay
A549 = experiment: Cytotoxicity against Homo sapiens (human) A549 cells after 48 hr by sulforhodamine B assay; details: A549, 48 h
SR = experiment: Cytotoxicity against Homo sapiens (human) SR cells after 48 hr by sulforhodamine B assay
MOLT-4 = experiment: Cytotoxicity against Homo sapiens (human) MOLT4 cells after 48 hr by sulforhodamine B assay; details: MOLT-4, 48 h
[1] = Cytotoxicity against Homo sapiens (human) […] cells after 48 hr by sulforhodamine B assay
HL-60(TB) = experiment: Cytotoxicity against Homo sapiens (human) HL-60(TB) cells after 48 hr by sulforhodamine B assay; details: HL-60, 48 h
CCRF-CEM = experiment: Cytotoxicity against Homo sapiens (human) CCRF-CEM cells after 48 hr by sulforhodamine B assay
Hs-578T = experiment: Cytotoxicity against Homo sapiens (human) Hs 578T cells after 48 hr by sulforhodamine B assay
DU-145 = experiment: Cytotoxicity against Homo sapiens (human) DU145 cells after 48 hr by sulforhodamine B assay; details: DU-145, 48 h
UO-31 = experiment: Cytotoxicity against Homo sapiens (human) UO31 cells after 48 hr by sulforhodamine B assay; details: UO-31, 48 h
SN12C = experiment: Cytotoxicity against Homo sapiens (human) SN12C cells after 48 hr by sulforhodamine B assay
CAKI-1 = experiment: Cytotoxicity against Homo sapiens (human) Caki1 cells after 48 hr by sulforhodamine B assay; details: CAKI-1, 48 h
[2] = Cytotoxicity against Homo sapiens (human) NCI-ADR-RES cells after 48 hr by sulforhodamine B assay
SK-OV-3 = experiment: Cytotoxicity against Homo sapiens (human) SKOV3 cells after 48 hr by sulforhodamine B assay; details: SK-OV-3, 48 h
OVCAR-8 = experiment: Cytotoxicity against Homo sapiens (human) OVCAR8 cells after 48 hr by sulforhodamine B assay; details: OVCAR-8, 48 h
OVCAR-5 = experiment: Cytotoxicity against Homo sapiens (human) OVCAR5 cells after 48 hr by sulforhodamine B assay; details: OVCAR-5, 48 h
OVCAR-4 = experiment: Cytotoxicity against Homo sapiens (human) OVCAR4 cells after 48 hr by sulforhodamine B assay; details: OVCAR-4, 48 h
UACC-62 = experiment: Cytotoxicity against Homo sapiens (human) UACC62 cells after 48 hr by sulforhodamine B assay; details: UACC-62, 48 h
SK-MEL-28 = experiment: Cytotoxicity against Homo sapiens (human) SK-MEL-28 cells after 48 hr by sulforhodamine B assay; details: SK-MEL-28, 48 h
M14 = experiment: Cytotoxicity against Homo sapiens (human) M14 cells after 48 hr by sulforhodamine B assay; details: M14, 48 h
LOX IMVI = experiment: Cytotoxicity against Homo sapiens (human) LOXIMVI cells after 48 hr by sulforhodamine B assay
SNB-75 = experiment: Cytotoxicity against Homo sapiens (human) SNB75 cells after 48 hr by sulforhodamine B assay; details: SNB-75, 48 h
SNB-19 = experiment: Cytotoxicity against Homo sapiens (human) SNB19 cells after 48 hr by sulforhodamine B assay; details: SNB-19, 48 h
SF-295 = experiment: Cytotoxicity against Homo sapiens (human) SF295 cells after 48 hr by sulforhodamine B assay; details: SF-295, 48 h
SF-539 = experiment: Cytotoxicity against Homo sapiens (human) SF539 cells after 48 hr by sulforhodamine B assay; details: SF-539, 48 h
SF-268 = experiment: Cytotoxicity against Homo sapiens (human) SF268 cells after 48 hr by sulforhodamine B assay; details: SF-268, 48 h

Compound `Cc1ccc(-c2cs/c(=N\NC(=O)c3ccc(O)cc3)n2-c2c(C)cccc2C)cc1` has a GI50 (KM12) of 18.2 µM, an LC50 (KM12) of over 100 µM and a TGI (KM12; read-out: pTGI (converted)) of 89.1 µM. It also gave a GI50 (COLO 205) of 16.6 µM, an LC50 (COLO 205) of over 100 µM and a TGI (COLO 205; read-out: pTGI (converted)) of 66.1 µM. The GI50 (NCI-H460) was 14.8 µM, the LC50 (NCI-H460) was over 100 µM and the TGI (NCI-H460; read-out: pTGI (converted)) was 72.4 µM. For the same compound, the GI50 (NCI-H322M) was 35.5 µM, the LC50 (NCI-H322M) was over 100 µM and the TGI (NCI-H322M; read-out: pTGI (converted)) was over 100 µM. It also gave a GI50 (NCI-H226) of 26.3 µM, an LC50 (NCI-H226) of over 100 µM and a TGI (NCI-H226; read-out: pTGI (converted)) of over 100 µM. It also gave a GI50 (EKVX) of 25.1 µM, an LC50 (EKVX) of over 100 µM and a TGI (EKVX; read-out: pTGI (converted)) of over 100 µM. For the same compound, the GI50 (A549) was 23.4 µM, the LC50 (A549) was over 100 µM and the TGI (A549; read-out: pTGI (converted)) was over 100 µM. For the same compound, the GI50 (SR) was 16.2 µM, the LC50 (SR) was over 100 µM and the TGI (SR; read-out: pTGI) was over 100 µM. For the same compound, the GI50 (MOLT-4) was 13.5 µM, the LC50 (MOLT-4) was over 100 µM and the TGI (MOLT-4; read-out: pTGI (converted)) was 57.5 µM. It also gave a GI50 [1] of 20 µM, an LC50 [1] of over 100 µM and a TGI ([1]; read-out: pTGI (converted)) of over 100 µM. The GI50 (HL-60(TB)) was 11.5 µM, the CC50 (HL-60(TB); read-out: pLC50 (the source's name) (converted)) was over 100 µM and the TGI (HL-60(TB); read-out: pTGI (converted)) was 64.6 µM. For the same compound, the GI50 (CCRF-CEM) was 33.1 µM, the LC50 (CCRF-CEM) was over 100 µM and the TGI (CCRF-CEM; read-out: pTGI) was over 100 µM. For the same compound, the GI50 (Hs-578T) was 23.4 µM, the LC50 (Hs-578T) was over 100 µM and the TGI (Hs-578T; read-out: pTGI (converted)) was 91.2 µM. It also gave a GI50 (DU-145) of 28.2 µM, an LC50 (DU-145) of over 100 µM and a TGI (DU-145; read-out: pTGI (converted)) of over 100 µM. The GI50 (UO-31) was 9.55 µM, the LC50 (UO-31) was over 100 µM and the TGI (UO-31; read-out: pTGI) was over 100 µM. For the same compound, the GI50 (SN12C) was 25.7 µM, the LC50 (SN12C) was over 100 µM and the TGI (SN12C; read-out: pTGI (converted)) was over 100 µM. It also gave a GI50 (CAKI-1) of 10.5 µM, an LC50 (CAKI-1) of over 100 µM and a TGI (CAKI-1; read-out: pTGI (converted)) of over 100 µM. The GI50 [2] was 21.4 µM, the LC50 [2] was over 100 µM and the TGI ([2]; read-out: pTGI (converted)) was 69.2 µM. The GI50 (SK-OV-3) was 30.9 µM, the LC50 (SK-OV-3) was over 100 µM and the TGI (SK-OV-3; read-out: pTGI (converted)) was over 100 µM. It also gave a GI50 (OVCAR-8) of 31.6 µM, an LC50 (OVCAR-8) of over 100 µM and a TGI (OVCAR-8; read-out: pTGI (converted)) of over 100 µM. It also gave a GI50 (OVCAR-5) of 28.2 µM, an LC50 (OVCAR-5) of over 100 µM and a TGI (OVCAR-5; read-out: pTGI (converted)) of over 100 µM. The GI50 (OVCAR-4) was 18.6 µM, the LC50 (OVCAR-4) was over 100 µM and the TGI (OVCAR-4; read-out: pTGI (converted)) was over 100 µM. It also gave a GI50 (UACC-62) of 16.6 µM, an LC50 (UACC-62) of over 100 µM and a TGI (UACC-62; read-out: pTGI (converted)) of 95.5 µM. For the same compound, the GI50 (SK-MEL-28) was 30.9 µM, the LC50 (concentration killing 50% of cells) (SK-MEL-28) was over 100 µM and the TGI (SK-MEL-28; read-out: pTGI (converted)) was 83.2 µM. The GI50 (M14) was 21.4 µM, the LC50 (M14) was over 100 µM and the TGI (M14; read-out: pTGI (converted)) was 72.4 µM. The GI50 (LOX IMVI) was 21.9 µM, the LC50 (LOX IMVI) was over 100 µM and the TGI (LOX IMVI; read-out: pTGI (converted)) was over 100 µM. The GI50 (SNB-75) was 24.5 µM, the LC50 (SNB-75) was over 100 µM and the TGI (SNB-75; read-out: pTGI (converted)) was over 100 µM. The GI50 (SNB-19) was 20.9 µM, the LC50 (SNB-19) was over 100 µM and the TGI (SNB-19; read-out: pTGI (converted)) was over 100 µM. For the same compound, the GI50 (SF-295) was 20.9 µM, the LC50 (SF-295) was over 100 µM and the TGI (SF-295; read-out: pTGI (converted)) was 79.4 µM. For the same compound, the GI50 (SF-539) was 21.9 µM, the LC50 (SF-539) was over 100 µM and the TGI (SF-539; read-out: pTGI (converted)) was over 100 µM. It also gave a GI50 (SF-268) of 23.4 µM, an LC50 (SF-268) of over 100 µM and a TGI (SF-268; read-out: pTGI (converted)) of over 100 µM.
